This passage reports IC50 results from patent publication US12492188B2, “1H-benzo[D]imidazole derivatives as TLR9 inhibitors for the treatment of fibrosis” (BRISTOL-MYERS SQUIBB COMPANY, priority 2020, dated 2025).

Where two headings read alike, the source gives them in different places.

Holding throughout (format): cell-based
In one assay the target is T1, human TLR9 (Homo sapiens, UniProt Q9NR96).
T1 construct: host or cells: HEK-Blue cells (HEK293-derived reporter line)
T1 sequence (Q9NR96 26-1032): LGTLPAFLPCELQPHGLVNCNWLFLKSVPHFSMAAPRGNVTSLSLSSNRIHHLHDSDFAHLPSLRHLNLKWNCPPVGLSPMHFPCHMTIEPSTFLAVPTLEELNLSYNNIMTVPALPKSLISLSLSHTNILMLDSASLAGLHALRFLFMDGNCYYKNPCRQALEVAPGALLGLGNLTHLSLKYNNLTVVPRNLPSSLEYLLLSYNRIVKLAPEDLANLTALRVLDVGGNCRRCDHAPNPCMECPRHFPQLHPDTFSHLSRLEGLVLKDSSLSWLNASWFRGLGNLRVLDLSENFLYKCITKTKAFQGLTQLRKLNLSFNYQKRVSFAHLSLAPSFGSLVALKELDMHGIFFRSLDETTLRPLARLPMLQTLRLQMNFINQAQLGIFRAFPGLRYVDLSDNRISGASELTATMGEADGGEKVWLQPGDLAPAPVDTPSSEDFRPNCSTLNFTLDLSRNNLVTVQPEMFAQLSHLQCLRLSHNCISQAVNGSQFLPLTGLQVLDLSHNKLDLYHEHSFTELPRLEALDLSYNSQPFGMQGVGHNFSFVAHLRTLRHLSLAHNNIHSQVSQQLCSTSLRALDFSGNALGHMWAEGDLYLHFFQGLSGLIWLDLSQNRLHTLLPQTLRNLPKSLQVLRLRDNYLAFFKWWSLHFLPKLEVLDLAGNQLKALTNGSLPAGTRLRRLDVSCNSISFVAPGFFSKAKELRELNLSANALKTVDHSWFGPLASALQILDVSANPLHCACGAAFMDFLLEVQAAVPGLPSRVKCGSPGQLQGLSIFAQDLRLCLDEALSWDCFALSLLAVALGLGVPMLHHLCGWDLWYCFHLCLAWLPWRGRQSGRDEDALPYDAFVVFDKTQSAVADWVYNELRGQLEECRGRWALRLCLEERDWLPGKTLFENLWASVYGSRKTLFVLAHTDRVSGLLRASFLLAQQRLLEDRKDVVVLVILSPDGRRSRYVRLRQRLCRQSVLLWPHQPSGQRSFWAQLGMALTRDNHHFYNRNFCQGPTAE
As to the kind of experiment: TLR9 inhibition reporter assay (HEK-Blue cells, secreted embryonic alkaline phosphatase reporter). The essentials:
(§1)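 Inhibitors are tested in dose response (0.05 nM–50 μM) on HEK-Blue reporter cells expressing human TLR7, TLR8 or TLR9. After 30 min at room temperature, each line is stimulated with its own agonist (gardiquimod 7.5 μM, R848 15.9 μM or ODN2006 5 nM, final) and SEAP is measured 22 h later.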
On the technique in general: In a reporter assay the amount or activity of a reporter protein is the signal.

The target in another assay is T2, human TLR7 (Homo sapiens, UniProt Q9NYK1).
T2 construct: host or cells: HEK-Blue cells (HEK293-derived reporter line)
T2 sequence (Q9NYK1 27-1049): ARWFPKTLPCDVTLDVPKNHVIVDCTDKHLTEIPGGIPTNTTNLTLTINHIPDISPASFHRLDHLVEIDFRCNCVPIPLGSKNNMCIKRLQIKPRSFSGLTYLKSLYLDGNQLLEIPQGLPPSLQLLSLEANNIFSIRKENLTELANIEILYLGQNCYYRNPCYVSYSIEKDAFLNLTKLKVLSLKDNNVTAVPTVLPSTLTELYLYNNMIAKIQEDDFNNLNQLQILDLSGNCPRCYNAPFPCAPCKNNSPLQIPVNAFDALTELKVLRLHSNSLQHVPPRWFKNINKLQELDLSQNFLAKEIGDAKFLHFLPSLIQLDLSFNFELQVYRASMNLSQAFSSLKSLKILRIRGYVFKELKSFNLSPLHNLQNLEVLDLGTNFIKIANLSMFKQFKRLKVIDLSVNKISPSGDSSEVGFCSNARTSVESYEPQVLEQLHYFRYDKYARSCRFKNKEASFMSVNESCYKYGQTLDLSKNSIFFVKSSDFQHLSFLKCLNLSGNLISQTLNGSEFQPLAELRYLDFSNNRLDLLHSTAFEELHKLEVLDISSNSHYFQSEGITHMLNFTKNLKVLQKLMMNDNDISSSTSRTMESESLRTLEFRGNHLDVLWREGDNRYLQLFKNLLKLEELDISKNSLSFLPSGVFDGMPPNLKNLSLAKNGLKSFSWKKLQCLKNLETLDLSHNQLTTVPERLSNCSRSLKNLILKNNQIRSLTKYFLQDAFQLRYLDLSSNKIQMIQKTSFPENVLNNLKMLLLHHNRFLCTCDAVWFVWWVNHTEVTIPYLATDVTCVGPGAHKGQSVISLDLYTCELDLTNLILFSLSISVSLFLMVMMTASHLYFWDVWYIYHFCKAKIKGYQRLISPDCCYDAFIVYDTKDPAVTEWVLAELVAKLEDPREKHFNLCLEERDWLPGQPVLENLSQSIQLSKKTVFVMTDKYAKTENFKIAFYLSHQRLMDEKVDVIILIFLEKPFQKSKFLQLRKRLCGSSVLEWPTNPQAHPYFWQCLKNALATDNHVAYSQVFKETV
In words: TLR7 inhibition reporter assay (HEK-Blue cells, secreted embryonic alkaline phosphatase reporter). To be noted: HEK-Blue cells overexpressing human TLR7, stimulated with gardiquimod 7.5 μM; read-out: TLR 7 IC50. A digest of the protocol:
as §1

The next assay has as its target T3, human TLR8 (Homo sapiens, UniProt Q9NR97).
T3 construct: host or cells: HEK-Blue cells (HEK293-derived reporter line)
T3 sequence (Q9NR97 27-1041): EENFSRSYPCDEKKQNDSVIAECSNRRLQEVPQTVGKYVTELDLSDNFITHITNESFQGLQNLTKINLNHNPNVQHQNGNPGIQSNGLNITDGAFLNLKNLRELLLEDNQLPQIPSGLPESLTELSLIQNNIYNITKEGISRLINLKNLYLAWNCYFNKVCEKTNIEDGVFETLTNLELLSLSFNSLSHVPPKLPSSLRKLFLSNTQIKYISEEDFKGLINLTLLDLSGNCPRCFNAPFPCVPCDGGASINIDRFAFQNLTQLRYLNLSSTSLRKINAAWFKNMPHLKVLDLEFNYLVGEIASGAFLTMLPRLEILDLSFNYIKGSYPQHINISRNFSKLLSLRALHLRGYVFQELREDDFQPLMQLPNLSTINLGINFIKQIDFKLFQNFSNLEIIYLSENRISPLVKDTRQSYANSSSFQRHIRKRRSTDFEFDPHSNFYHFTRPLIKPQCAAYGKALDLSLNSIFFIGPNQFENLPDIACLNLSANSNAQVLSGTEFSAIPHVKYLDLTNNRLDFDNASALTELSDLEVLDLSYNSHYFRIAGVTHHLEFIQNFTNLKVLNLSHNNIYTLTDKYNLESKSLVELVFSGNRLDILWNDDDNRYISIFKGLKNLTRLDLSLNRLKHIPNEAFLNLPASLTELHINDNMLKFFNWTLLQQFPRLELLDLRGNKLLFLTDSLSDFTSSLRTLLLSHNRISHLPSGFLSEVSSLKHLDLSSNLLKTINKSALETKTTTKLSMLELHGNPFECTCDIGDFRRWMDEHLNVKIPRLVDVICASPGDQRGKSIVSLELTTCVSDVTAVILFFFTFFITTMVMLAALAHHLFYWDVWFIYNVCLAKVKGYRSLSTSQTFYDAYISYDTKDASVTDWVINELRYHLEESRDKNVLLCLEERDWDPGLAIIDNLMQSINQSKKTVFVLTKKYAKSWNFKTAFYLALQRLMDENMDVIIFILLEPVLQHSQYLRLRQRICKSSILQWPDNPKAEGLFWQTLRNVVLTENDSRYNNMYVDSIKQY
As to the kind of experiment: TLR8 inhibition reporter assay (HEK-Blue cells, secreted embryonic alkaline phosphatase reporter). Particulars: HEK-Blue cells overexpressing human TLR8, stimulated with R848 15.9 μM; read-out: TLR 8 IC50. A digest of the protocol:
as §1

The mark [1] stands for this setting: HEK-Blue cells overexpressing human TLR9, stimulated with ODN2006 5 nM, read-out: TLR 9 IC50.
The mark [2] stands for this setting: HEK-Blue human TLR9 reporter cells.
Where [3] appears, read: HEK-Blue cells overexpressing human TLR9, stimulated with ODN2006 5 nM, 22 hour incubation, reporter readout.

For the compound `CC(C)CN1CCC(N2CCC(c3ccc4nc(-c5ccc(S(C)(=O)=O)cc5)[nH]c4c3F)CC2)CC1` [Example 177, 7-fluoro-6-(1′-isobutyl-[1,4′-bipiperidin]-4-yl)-2-(4-(methylsulfonyl)phenyl)-1H-benzo[d]imidazole], the IC50 – broadly, the point on the concentration scale where inhibition reaches its midpoint – on human TLR9 was 120 nM; on human TLR9 (setting [1]), 120 nM; on human TLR7 it was greater than 50000 nM; at human TLR8 it was greater than 50000 nM.

For `COCCN1C2CCC1CC(N1CCC(c3cc(C)c4nc(-c5ccc(OC)c(OC)c5)n(C)c4c3)CC1)C2` (single isomer, unassigned) [Example 168, 2-(3,4-dimethoxyphenyl)-6-(1-(8-(2-methoxyethyl)-8-azabicyclo[3.2.1]octan-3-yl)piperidin-4-yl)-1,4-dimethyl-1H-benzo[d]imidazole], the IC50 is 51 nM on human TLR9, 51 nM at human TLR9 (setting [1]), 14000 nM on human TLR7 and greater than 25000 nM at human TLR8.

`Cc1cc(C2CCN(C3CCCN(C4CCOCC4)CC3)CC2)cc2c1nc(-c1ccc(S(C)(=O)=O)cc1)n2C` (single isomer, unassigned) [Example 307, 1,4-dimethyl-2-(4-(methylsulfonyl)phenyl)-6-(1-(1-(tetrahydro-2H-pyran-4-yl)azepan-4-yl)piperidin-4-yl)-1H-benzo[d]imidazole]: the IC50 on human TLR9 (setting [1]) is 3.5 nM; against human TLR9 (setting [2]) it was 3.5 nM; on human TLR7 it was 20500 nM; on human TLR8 it was greater than 50000 nM.

As for `Cn1c(-c2ccc(S(C)(=O)=O)cc2)nc2ccc(C3CCN(C4CCCN(C5CCC5)CC4)CC3)c(F)c21` (stereo not drawn) [Example 312, 6-(1-(1-cyclobutylazepan-4-yl)piperidin-4-yl)-7-fluoro-1-methyl-2-(4-(methylsulfonyl)phenyl)-1H-benzo[d]imidazole], the IC50 is 64 nM at human TLR9 (setting [1]), 64 nM at human TLR9 (setting [2]), greater than 50000 nM on human TLR7 and greater than 50000 nM at human TLR8.

For `Cn1c(-c2ccc(S(C)(=O)=O)cc2)nc2cc(F)c(C3CCN(C4CC5CCC(C4)N5C4CCC4)CC3)cc21` (stereo not drawn) [Example 232, 6-(1-(8-cyclobutyl-8-azabicyclo[3.2.1]octan-3-yl)piperidin-4-yl)-5-fluoro-1-methyl-2-(4-(methylsulfonyl)phenyl)-1H-benzo[d]imidazole], the IC50 at human TLR9 was 45 nM; on human TLR9 (setting [1]), 45 nM; at human TLR7, 22400 nM; at human TLR8, greater than 50000 nM.

On to `COc1ccc(-c2nc3c(C)cc(C4CCN(C5CC6CCC(C5)N6C5CCOCC5)CC4)cc3n2C)cc1OC` (single isomer, unassigned) [Example 166, 2-(3,4-dimethoxyphenyl)-1,4-dimethyl-6-(1-(8-(tetrahydro-2H-pyran-4-yl)-8-azabicyclo[3.2.1]octan-3-yl)piperidin-4-yl)-1H-benzo[d]imidazole], for which the half-maximal inhibitory concentration (IC50) at human TLR9 is 40 nM; at human TLR9 (setting [1]), 40 nM; on human TLR7, 4700 nM; at human TLR8 it was greater than 25000 nM.

For the compound `COCCN1C2CCC1CC(N1CCC(c3ccc4c(nc(-c5ccc(S(C)(=O)=O)cc5)n4C)c3F)CC1)C2` (single isomer, unassigned) [Example 199, 4-fluoro-5-(1-(8-(2-methoxyethyl)-8-azabicyclo[3.2.1]octan-3-yl)piperidin-4-yl)-1-methyl-2-(4-(methylsulfonyl)phenyl)-1H-benzo[d]imidazole], the IC50 on human TLR9 is 75 nM; at human TLR9 (setting [1]) it was 75 nM; on human TLR7, 25600 nM; at human TLR8 it was greater than 50000 nM.

Consider `Cn1c(-c2ccc(S(C)(=O)=O)cc2)nc2cc(C3CCN(C4CC5CCC(C4)N5C4CCOCC4)CC3)cc(F)c21` (stereo not drawn) [Example 211, 7-fluoro-1-methyl-2-(4-(methylsulfonyl)phenyl)-5-(1-(8-(tetrahydro-2H-pyran-4-yl)-8-azabicyclo[3.2.1]octan-3-yl)piperidin-4-yl)-1H-benzo[d]imidazole], for which the 50% inhibitory concentration (IC50) against human TLR9 was 270 nM; at human TLR9 (setting [1]), 165 nM; at human TLR7 it was greater than 50000 nM; at human TLR8, greater than 50000 nM.

With `CC(C)N1CCC(N2CCC(c3cc4c(cc3F)nc(-c3ccc(S(C)(=O)=O)cc3)n4C)CC2)CC1` [Example 96, 5-fluoro-6-(1′-isopropyl-[1,4′-bipiperidin]-4-yl)-1-methyl-2-(4-(methylsulfonyl)phenyl)-1H-benzo[d]imidazole], the IC50 is 73 nM against human TLR9 (setting [3]), 7300 nM at human TLR7 and greater than 50000 nM at human TLR8.

As to `CN(C)C1CCN(Cc2ccc(-c3ccc4nc(-c5ccccc5)n(C)c4c3)cc2)CC1` [Example 374, N,N-dimethyl-1-(4-(1-methyl-2-phenyl-1H-benzo[d]imidazol-6-yl)benzyl)piperidin-4-amine], the IC50 on human TLR9 (setting [3]) was 280 nM; at human TLR9 (setting [1]), 279 nM; at human TLR7 it was 800 nM; on human TLR8, greater than 50000 nM.
